Data: ChEMBL document CHEMBL5052849, “Compositions and methods for measuring and inhibiting calpain-5 activity” (2021)
Non-standard residues stand in square brackets, D forms with d. Residues, ends and D or L forms follow the SMILES beside them. Nle = CCCC[C@H](N)C(=O)O

Key:
Design in all cases: species or system Homo sapiens
[1] = Inhibition of CAPN5 G267S mutant (unknown origin) using DABCYL-TPLKSPPPSPR-EDANS as substrate incubated for 30 mins and measured by High-throughput FRET-based assay
[2] = Inhibition of CAPN5 R243L mutant (unknown origin)
[3] = Inhibition of wild-type CAPN5 (unknown origin)

Compound CCCC[C@@H](C=O)NC(=O)[C@H](CC(C)C)NC(=O)[C@H](CC(C)C)NC(C)=O (Ac-Leu-Leu-[Nle]-aldehyde) has an IC50 [1] of 136 nM.
Work on CC[C@H](C)[C@H](NC(=O)[C@H](CCC(=O)O)NC(=O)[C@@H](NC(=O)[C@@H](N)CCCCN)[C@@H](C)CC)C(=O)N[C@H](C(=O)N[C@@H](CCCNC(=N)N)C(=O)N[C@@H](CCCCNC)C(=O)N[C@@H](CCCCN)C(=O)N1CCC[C@H]1C(=O)N[C@H](C(=O)N[C@@H](Cc1ccccc1)C(=O)N[C@@H](CCCCN)C(=O)N[C@@H](CCCCN)C(=O)N[C@@H](C)C(=O)N[C@H](C(=O)N[C@H](C(=O)O)C(C)C)[C@@H](C)O)[C@@H](C)CC)C(C)C (HELM PEPTIDE1{K.I.E.I.V.R.[CNCCCC[C@H](N[*:1])C(=O)[*:2]].K.P.I.F.K.K.A.T.V}$$$$V2.0) yielded an IC50 ([2]; read-out: IC50) of 29.5 nM, an IC50 [3] of 24000 nM and an IC50 [1] of 3.6 nM.
Compound CC[C@H](C)[C@H](NC(=O)[C@H](CCC(=O)O)NC(=O)[C@@H](NC(=O)[C@@H](N)CCCCN)[C@@H](C)CC)C(=O)N[C@H](C(=O)N[C@@H](CCCNC(=N)N)C(=O)N[C@@H](CCCCNC)C(=O)N[C@@H](CCCCNC)C(=O)N1CCC[C@H]1C(=O)N[C@H](C(=O)N[C@@H](Cc1ccccc1)C(=O)N[C@@H](CCCCN)C(=O)N[C@@H](CCCCN)C(=O)N[C@@H](C)C(=O)N[C@H](C(=O)N[C@H](C(=O)O)C(C)C)[C@@H](C)O)[C@@H](C)CC)C(C)C (HELM PEPTIDE1{K.I.E.I.V.R.[CNCCCC[C@H](N[*:1])C(=O)[*:2]].[CNCCCC[C@H](N[*:1])C(=O)[*:2]].P.I.F.K.K.A.T.V}$$$$V2.0) has an IC50 ([2]; read-out: IC50) of 126 nM, an IC50 [3] of 496 nM and an IC50 [1] of 1200 nM.
With CCCC[C@@H](C=O)NC(=O)[C@H](CC(C)C)NC(=O)OCc1ccccc1 [CALPEPTIN] the IC50 [2] was “Not Active”, the IC50 [3] was 8.35 nM and the IC50 [1] was 1100 nM.
In the case of CC(=O)N[C@@H](CC(C)C)C(=O)N[C@@H](CC(C)C)C(=O)N[C@H](C=O)CCCNC(=N)N [LEUPEPTIN], the IC50 [2] is reported as “Not Active” and the IC50 [3] is reported as 165 nM.
